From patent publication US5866558A, “6-alkynyl steroids” (Regents of the University of Minnesota, priority 1997, dated 1999)
Several values for one entry are separate records, joined by “and”; a condition that tells them apart may be missing. Equal values may be shown once. Read-outs that look alike come from different tables or passages of the source.

Columns and labels:
aromatase [1] = target: T1, aromatase (Homo sapiens, UniProt P11511); test: biochemical; format: biochemical; design: Microsomes were obtained from human placentas after normal deliveries; from tissue; host or cells: human placenta, microsomes (washed twice, lyophilized)
T1 sequence (P11511 1-503): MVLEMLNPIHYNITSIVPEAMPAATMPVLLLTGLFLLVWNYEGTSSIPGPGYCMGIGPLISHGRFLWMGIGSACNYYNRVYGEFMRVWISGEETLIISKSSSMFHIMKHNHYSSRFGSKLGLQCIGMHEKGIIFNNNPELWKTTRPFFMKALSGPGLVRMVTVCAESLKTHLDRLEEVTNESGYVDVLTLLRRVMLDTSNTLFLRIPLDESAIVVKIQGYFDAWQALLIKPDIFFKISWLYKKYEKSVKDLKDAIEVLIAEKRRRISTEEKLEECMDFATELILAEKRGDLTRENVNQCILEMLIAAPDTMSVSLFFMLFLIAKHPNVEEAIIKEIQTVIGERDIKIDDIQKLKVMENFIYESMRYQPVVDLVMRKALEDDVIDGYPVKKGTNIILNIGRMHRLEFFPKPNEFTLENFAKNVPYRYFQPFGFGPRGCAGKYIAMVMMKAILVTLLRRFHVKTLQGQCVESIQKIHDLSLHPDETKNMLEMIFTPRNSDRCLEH
Method: (§1) Test A. Enzyme Affinity Assay
(§2) Microsomes were obtained from human placentas after normal deliveries and prepared as described previously (Ryan, K. J. "Biological aromatization of steroids" J Biol. Chem. 1959, 234, 266-272). Following isolation of the microsomal pellets (washed twice), they were lyophilized and stored at -20° C.

aromatase [2] = target: T1, aromatase; format: biochemical; design: Microsomes were obtained from human placentas after normal deliveries; from tissue; host or cells: human placenta, microsomes (washed twice, lyophilized)
[3] = Incubation with rat liver homogenates (prodrug dehydration); format: in vitro ADME; settings: gives compound (4)
Source text: Accordingly, the invention includes a compound of formula III, wherein R to R^5 are defined as above; or a pharmaceutically acceptable salt thereof. The invention also includes a pharmaceutical composition comprising a compound of formula III; or a pharmaceutically acceptable salt thereof; and a pharmaceutically acceptable diluent or carrier. Because alcohols of formula III are capable of acting as prodrugs for compounds of formula I, it may be advantageous to use an alcohol of formula III in place of a corresponding compound of formula I in any of the methods disclosed herein. Accordingly, the invention includes a method for treating a disease in a human or other mammal in need thereof in which aromatase has been implicated and inhibition of its action is desired, comprising administering to said human or mammal an effective amount of a compound of formula III; or a pharmaceutically acceptable salt thereof. The invention also includes a method for inhibiting aromatase in a mammal comprising administering to said mammal an effective amount of a compound of formula III; or a pharmaceutically acceptable salt thereof.

aromatase [4] = target: T1, aromatase; test: Test C. Ki Determination / enzyme inactivation kinetics (Kitz and Wilson); settings: for T1/2 of enzyme inhibition / KI (inactivation): Table 2; for KI (inactivation): read-out: App. Ki(inact), apparent Ki for inactivation; for kinact: read-out: kcat
aromatase [5] = target: T1, aromatase; test: Aromatase inhibition, overall results of tests A, B, and C; format: biochemical; design: Microsomes were obtained from human placentas after normal deliveries; from tissue; host or cells: human placenta, microsomes (washed twice, lyophilized)
Method: as §1, §2
Test B. Evaluation of Time-Dependent Inhibition
This determination requires measurements at initial velocities of enzyme reaction. The enzyme activity is determined following different preincubation times at various inhibitor concentrations when assayed at a substrate concentration of at least ten times the Km of androstenedione.

[6] = substrate: C[C@]12CCC(=O)C=C1CC[C@@H]1[C@@H]2CC[C@]2(C)C(=O)CC[C@@H]12; test: purified protein, by the assay type; settings: other: natural substrate

Molecule: C#CC[C@H]1C[C@@H]2[C@H](CC[C@]3(C)C(=O)CC[C@@H]23)[C@H]2CCC(=O)C=C12 [6α-Propargyl ED]
- IC50 (aromatase [1]; IC50): 430 nM
- Type of Inhibition (aromatase [2]): Reversible

Molecule: C#CC[C@@H]1C[C@H]2[C@@H]3CCC(=O)[C@@]3(C)CC[C@@H]2[C@@]2(C)CCC(=O)C[C@]12O [compound (3)]
- dehydration in the presence of rat liver homogenates [3]: found to dehydrate in the presence of the homogenates to give compound (4)

Molecule: C#CC[C@@H]1C[C@@H]2[C@H](CC[C@]3(C)C(=O)CC[C@@H]23)[C@@]2(C)CCC(=O)C=C12 [6β-Propargyl AD, 6β-Propargyl-4-androstene-3,17-dione]
- Ki (aromatase [1]; Ki (apparent)): 9.8 nM and 87.5 nM
- T1/2 of enzyme inhibition (aromatase [4]): 7.7 min
- KI (inactivation) (aromatase [4]): 46.8 nM
- kinact (aromatase [4]): 0.0015 s⁻¹
- irreversibility / mechanism of inhibition (aromatase [4]; test C): irreversibly bound to the enzyme
- affinity for the enzyme site relative to natural substrate androstenedione (aromatase [4]; vs androstenedione Km): about five times greater
- aromatase inhibitory properties, in words (aromatase [5]): superior to other known aromatase inhibitors

Molecule: C#CC[C@]12CCC(=O)C=C1CC[C@@H]1[C@@H]2CC[C@]2(C)C(=O)CC[C@@H]12 [10β-Propargyl ED, 10-(2-propynyl)estr-4-ene-3,17-dione]
- IC50 (aromatase [1]; IC50): 42 nM
- Ki (aromatase [1]; Ki (apparent)): 26.7 nM
- Type of Inhibition (aromatase [2]): Irreversible/Inactivation

Molecule: C#CC[C@@H]1C[C@@H]2[C@H](CC[C@]3(C)C(=O)CC[C@@H]23)[C@H]2CCC(=O)C=C12 [6β-Propargyl ED, 6β-Propargyl-4-estrene-3,17-dione]
- IC50 (aromatase [1]; IC50): 98 nM
- Ki (aromatase [1]; Ki (apparent)): 43.5 nM
- T1/2 of enzyme inhibition (aromatase [4]): 9.75 min
- KI (inactivation) (aromatase [4]): 15.4 nM
- kinact (aromatase [4]): 0.0012 s⁻¹
- Type of Inhibition (aromatase [2]): Irreversible/Inactivation

Molecule: C#CC[C@H]1C[C@@H]2[C@H](CC[C@]3(C)C(=O)CC[C@@H]23)[C@@]2(C)CCC(=O)C=C12 [6α-propynyl compound, 6α-(2-propynyl)androst-4-ene-3,17-dione]
- enzyme affinity compared with other known inhibitors (aromatase [1]): greater enzyme affinty than other known inhibitors

Molecule: C[C@]12C=CC(=O)C=C1C=C[C@@H]1[C@@H]2CC[C@]2(C)C(=O)CC[C@@H]12 [1,4,6-ATD, androst-1,4,6-triene-3,17-dione]
- Ki (aromatase [1]; Table 1, apparent Ki, read-out: Ki (apparent)): 136 nM
- IC50 (aromatase [1]; Table 1, human placental microsomes, read-out: IC50): 890 nM
- Type of Inhibition (aromatase [2]; Table 1): Irreversible/Inactivation

Molecule: C[C@]12CCC(=O)C(O)=C1CC[C@@H]1[C@@H]2CC[C@]2(C)C(=O)CC[C@@H]12 [4-Hydroxy AD, 4-hydroxyandrostenedione]
- IC50 (aromatase [1]; IC50): 250 nM
- Ki (aromatase [1]; read-out: Ki (apparent)): 40.8 nM
- Type of Inhibition (aromatase [2]): Irreversible/Inactivation

B1: aromatase (Homo sapiens) (protein)
chain: T1 sequence (P11511 1-503)
- Km [6]: 0.055 µM
